Data taken from article PMC7380166, “How to Study the Metabolism of New Psychoactive Substances for the Purpose of Toxicological Screenings—A Follow-Up Study Comparing Pooled Human Liver S9, HepaRG Cells, and Zebrafish Larvae” (Frontiers in Chemistry, 2020).

Experiments:
CYP3A4 = target: T1, CYP3A4 (Homo sapiens, UniProt P08684); test: Monooxygenases activity screening, CYP3A4; type: in vitro ADME; set-up: key: +, detected; –: −, not detected; settings: 25 μM 4F-MDMB-BINACA, 50 pmol/ml enzyme, 30 min, 37°C, duplicate
T1 construct: purchased Corning; host or cells: baculovirus-transfected insect cell microsomes (Supersomes)
Protocol: (§1) According to an established protocol (Wagmann et al., [2016]), the final volume per reaction tube was 50 μl with a final 4F-MDMB-BINACA concentration of 25 μM and enzyme concentrations of 50 pmol/ml for CYP1A2, CYP2A6, CYP2B6, CYP2C8, CYP2C9, CYP2C19, CYP2D6, CYP2E1, CYP3A4, and CYP3A5, respectively, or 0.25 mg protein/ml for FMO3. Furthermore, the reaction mixture contained 90 mM phosphate buffer (pH 7.4), superoxide dismutase (200 U/ml), isocitrate (5 mM), MgCl2 (5 mM), isocitrate dehydrogenase (0.5 U/ml), and NADP^+ (1.2 mM). The phosphate buffer was replaced with Tris buffer (90 mM) for incubations with CYP2A6 and CYP2C9 according to the manufacturer's recommendation. All incubations were performed at 37°C for 30 min and terminated by adding 50 μl of ice-cold acetonitrile. Afterwards, the mixtures were centrifuged at 18,407 × g for 5 min, 70 μl of the supernatants was transferred into autosampler vials, and 1 μl was injected onto the LC-HRMS/MS system. Positive control incubations were performed with pHLM (1 mg microsomal protein/ml), and negative controls without enzyme were prepared to identify non-metabolically formed compounds. All incubations were done in duplicate.

CYP3A5 = target: T2, CYP3A5 (Homo sapiens, UniProt P20815); test: Monooxygenases activity screening, CYP3A5; type: in vitro ADME; set-up: key: +, detected; –: −, not detected; settings: 25 μM 4F-MDMB-BINACA, 50 pmol/ml enzyme, 30 min, 37°C, duplicate
T2 construct: purchased Corning; host or cells: baculovirus-transfected insect cell microsomes (Supersomes)
Protocol: as §1

CYP2C8 = target: T3, CYP2C8 (Homo sapiens, UniProt P10632); test: Monooxygenases activity screening, CYP2C8; type: in vitro ADME; set-up: key: +, detected; –: −, not detected; settings: 25 μM 4F-MDMB-BINACA, 50 pmol/ml enzyme, 30 min, 37°C, duplicate
T3 construct: purchased Corning; host or cells: baculovirus-transfected insect cell microsomes (Supersomes)
T3 sequence (P10632 1-490): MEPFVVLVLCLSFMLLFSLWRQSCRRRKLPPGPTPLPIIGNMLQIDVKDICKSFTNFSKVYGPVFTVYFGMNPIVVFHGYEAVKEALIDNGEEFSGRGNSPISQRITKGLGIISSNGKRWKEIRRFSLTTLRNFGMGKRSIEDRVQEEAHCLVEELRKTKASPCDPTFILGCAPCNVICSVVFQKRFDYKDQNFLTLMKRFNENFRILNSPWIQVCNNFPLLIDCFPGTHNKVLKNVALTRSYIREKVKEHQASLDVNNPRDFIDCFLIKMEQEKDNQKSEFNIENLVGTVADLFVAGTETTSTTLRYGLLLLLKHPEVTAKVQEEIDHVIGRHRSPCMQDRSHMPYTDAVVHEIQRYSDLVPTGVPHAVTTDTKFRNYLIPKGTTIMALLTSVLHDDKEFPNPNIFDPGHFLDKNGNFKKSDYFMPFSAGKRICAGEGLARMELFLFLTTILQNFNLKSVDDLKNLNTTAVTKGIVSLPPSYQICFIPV
Protocol: as §1

CYP2C9 = target: T4, CYP2C9 (Homo sapiens, UniProt P11712); test: Monooxygenases activity screening, CYP2C9; type: in vitro ADME; set-up: key: +, detected; –: −, not detected; settings: 25 μM 4F-MDMB-BINACA, 50 pmol/ml enzyme, 30 min, 37°C, duplicate
T4 construct: purchased Corning; host or cells: baculovirus-transfected insect cell microsomes (Supersomes)
Protocol: as §1

[1] = Esterases activity screening, pHLM; type: in vitro ADME, human; set-up: key: +, detected; –: −, not detected; settings: 100 μM 4F-MDMB-BINACA, 0.2 mg protein/ml, duplicate
Protocol: (§2) Experiments were performed in accordance with a previous study (Meyer et al., [2015]) with minor modifications. The final volume per reaction tube was 100 μl with a final 4F-MDMB-BINACA concentration of 100 μM and enzyme concentration of 0.2 mg protein/ml for hCES1b, hCES1c, and hCES2. Incubations with pHLM and pHLS9 (0.2 mg protein/ml, each) were performed in a similar manner. Additionally, incubations with human plasma (50 μl pooled human plasma, 40 μl phosphate buffer, and 10 μl substrate) were performed. The reactions were started by adding the enzyme-containing preparation and terminated with an equal volume of ice-cold acetonitrile containing diazepam-d5 (100 μM) as an internal standard. Only plasma incubations were terminated by addition of a three-fold volume of ice-cold acetonitrile. The reaction mixtures were centrifuged at 18,407 × g for 15 min, and then supernatants were transferred to autosampler vials, and 5 μl was injected onto the LC-HRMS/MS system. Negative control incubations without enzyme were prepared to identify non-metabolically formed compounds. All incubations were done in duplicate.

[2] = Esterases activity screening, pooled human blood plasma; type: in vitro ADME; set-up: key: +, detected; –, not detected; settings: 100 μM 4F-MDMB-BINACA, duplicate
Protocol: as §2

hCES2 = target: T5, hCES2 (Homo sapiens, UniProt O00748); test: Esterases activity screening, hCES2; type: in vitro ADME; set-up: key: +, detected; –, not detected; settings: 100 μM 4F-MDMB-BINACA, 0.2 mg protein/ml, duplicate
T5 construct: purchased Corning
T5 sequence (O00748 27-559): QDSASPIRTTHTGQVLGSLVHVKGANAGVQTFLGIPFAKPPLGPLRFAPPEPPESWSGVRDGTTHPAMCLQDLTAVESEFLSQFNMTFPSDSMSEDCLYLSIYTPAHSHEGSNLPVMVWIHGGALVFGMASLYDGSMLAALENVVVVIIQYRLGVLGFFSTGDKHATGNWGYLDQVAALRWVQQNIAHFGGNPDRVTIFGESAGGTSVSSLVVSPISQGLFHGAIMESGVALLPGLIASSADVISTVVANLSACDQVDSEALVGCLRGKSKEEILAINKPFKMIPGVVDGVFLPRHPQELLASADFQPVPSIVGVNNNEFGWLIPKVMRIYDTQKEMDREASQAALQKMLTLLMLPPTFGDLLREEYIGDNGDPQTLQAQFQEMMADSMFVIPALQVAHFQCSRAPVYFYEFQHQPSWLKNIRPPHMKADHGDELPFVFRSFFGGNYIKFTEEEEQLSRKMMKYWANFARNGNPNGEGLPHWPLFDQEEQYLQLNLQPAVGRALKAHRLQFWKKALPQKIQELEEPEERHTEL
Protocol: as §2

[3] = Esterases activity screening, pHLS9; type: in vitro ADME, human; set-up: key: +, detected; –: −, not detected; settings: 100 μM 4F-MDMB-BINACA, 0.2 mg protein/ml, duplicate
Protocol: as §2

T2 sequence (P20815 whole entry): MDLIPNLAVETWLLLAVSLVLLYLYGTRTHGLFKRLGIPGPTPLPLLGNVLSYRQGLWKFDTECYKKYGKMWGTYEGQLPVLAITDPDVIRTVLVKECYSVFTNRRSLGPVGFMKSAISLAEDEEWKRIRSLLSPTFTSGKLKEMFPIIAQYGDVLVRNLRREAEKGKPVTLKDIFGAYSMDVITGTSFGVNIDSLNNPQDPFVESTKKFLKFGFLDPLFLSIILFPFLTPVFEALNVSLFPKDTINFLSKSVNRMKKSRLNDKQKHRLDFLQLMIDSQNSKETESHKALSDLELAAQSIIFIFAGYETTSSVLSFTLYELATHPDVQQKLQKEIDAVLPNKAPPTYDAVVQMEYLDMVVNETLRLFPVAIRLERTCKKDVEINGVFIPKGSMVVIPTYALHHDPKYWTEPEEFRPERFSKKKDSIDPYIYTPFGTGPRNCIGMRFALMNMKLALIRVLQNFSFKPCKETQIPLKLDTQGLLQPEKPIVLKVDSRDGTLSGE
T1 sequence (P08684 whole entry): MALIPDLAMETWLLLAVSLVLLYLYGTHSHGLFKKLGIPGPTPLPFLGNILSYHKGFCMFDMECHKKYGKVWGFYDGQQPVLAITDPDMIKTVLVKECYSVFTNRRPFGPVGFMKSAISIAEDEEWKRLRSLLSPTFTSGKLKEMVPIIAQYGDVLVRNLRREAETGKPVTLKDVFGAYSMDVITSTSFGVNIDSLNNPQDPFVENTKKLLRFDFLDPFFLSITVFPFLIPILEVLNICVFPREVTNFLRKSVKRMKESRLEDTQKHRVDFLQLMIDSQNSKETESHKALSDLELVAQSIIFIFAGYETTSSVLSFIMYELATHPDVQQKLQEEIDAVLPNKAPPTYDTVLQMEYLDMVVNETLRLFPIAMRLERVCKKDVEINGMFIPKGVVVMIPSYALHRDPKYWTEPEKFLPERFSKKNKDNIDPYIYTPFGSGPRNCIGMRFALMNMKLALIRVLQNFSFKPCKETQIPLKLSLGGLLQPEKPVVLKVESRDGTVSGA
T4 sequence (P11712 whole entry): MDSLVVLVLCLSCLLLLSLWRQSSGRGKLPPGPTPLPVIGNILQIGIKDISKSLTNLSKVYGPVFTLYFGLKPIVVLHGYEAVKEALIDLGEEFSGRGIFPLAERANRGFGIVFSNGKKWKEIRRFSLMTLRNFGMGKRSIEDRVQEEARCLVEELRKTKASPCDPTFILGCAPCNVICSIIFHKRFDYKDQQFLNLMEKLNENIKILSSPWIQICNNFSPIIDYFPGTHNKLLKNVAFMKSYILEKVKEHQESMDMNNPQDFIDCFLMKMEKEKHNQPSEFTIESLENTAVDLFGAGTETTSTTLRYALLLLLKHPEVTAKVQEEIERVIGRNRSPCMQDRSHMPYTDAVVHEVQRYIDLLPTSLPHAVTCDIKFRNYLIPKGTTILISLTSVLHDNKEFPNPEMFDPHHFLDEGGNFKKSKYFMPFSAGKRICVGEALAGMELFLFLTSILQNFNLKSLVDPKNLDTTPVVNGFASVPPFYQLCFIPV

| Compound | Detection of metabolite in incubation with CYP3A4 (CYP3A4) | Detection of metabolite in incubation with CYP3A5 (CYP3A5) | Detection of metabolite in incubation with CYP2C8 (CYP2C8) | Detection of metabolite in incubation with CYP2C9 (CYP2C9) | Detection of metabolite in incubation with pHLM [1] | Detection of metabolite in incubation with pHBP [2] | Detection of metabolite in incubation with hCES2 (hCES2) | Detection of metabolite in incubation with pHLS9 [3] |
| --- | --- | --- | --- | --- | --- | --- | --- | --- |
| COC(=O)[C@@H](NC(=O)c1n[nH]c2ccccc12)C(C)(C)C [MB4] | + | + | – | – |  |  |  |  |
| COC(=O)[C@@H](NC(=O)c1nn(CCCCO)c2ccccc12)C(C)(C)C [MB11] | – | + | + | – |  |  |  |  |
| COC(=O)[C@@H](NC(=O)c1nn(CCCCF)c2ccccc12)C(C)(C)CO [MB16] | – | + | – | – |  |  |  |  |
| CC(C)(C)C(NC(=O)c1nn(CCCCF)c2ccccc12)C(=O)O (stereo not shown) [MB8] | – | – | – | – | + | – | – | + |
| O=C(O)c1nn(CCCCF)c2ccccc12 [MB1] | – | – | – | – | + | – | – | + |
